Data: patent US20100056468A1, “Pyrimidine Derivatives As Anticancer Agents” (University Health Network, priority 2007, published 2010)

Experiments:
Mt ODCase = Mt ODCase (Methanothermobacter thermautotrophicus, UniProt O26232); assay: biochemical; parameters: species or system M. thermoautotrophicum; conditions: reversible inhibition, 20 nM enzyme, 40 μM OMP
Hs ODCase = target: T1, Hs ODCase (Homo sapiens, UniProt P11172); assay: Reversible (competitive) inhibition of ODCase, calorimetric assay; format: biochemical; conditions: 37° C., 60 nM enzyme
T1 construct: ODCase region of human UMP synthase
Experimental: The stock solution of enzyme (60 μM) was prepared in 50 mM Tris (pH 7.5), 20 mM DTT, and 40 mM NaCl and incubated overnight at 4° C. This stock sample was later used to prepare the enzyme assay samples. The enzyme was kept on ice during the experiment. The enzyme stock was diluted with 50 mM Tris buffer containing 1 mM DTT to prepare 60 nM enzyme assay samples. The final substrate concentration was 15 or 20 μM. Concentrated samples of inhibitors were prepared in 50 mM Tris (pH 7.5). The volumes and concentrations of the enzyme and substrate were the same as described above for the reaction without inhibitor. All three compounds were tested in a competitive inhibition assay where enzyme is mixed with the inhibitor and the reaction is initiated by the substrate addition. Assay samples were prepared in 50 mM Tris, 1 mM DTT. The final assay concentration of 5-F-6-azido-UMP was 0, 0.25, 0.50, 0.75, 1.0 μM. The assay samples were prepared with 0, 0.2, 0.4, 1.0, and 2.0 μM and 0, 50, 100, 250, 500 μM 5-fluoro-6-ethyl-UMP.
The initial data analyses were done in Origin 7.0 software. The raw data representing the heat change over time were converted to the reaction rate at each recorded time point. A Michaelis-Menten plot was constructed and the data were fitted to MM equation (Eq. 1) to determine the kinetic parameters KM and kcat. The molar enthalpy (ΔH) was also automatically calculated.
To calculate the Ki the data were exported to GraFit 5.0 program. The data points were fitted to the competitive inhibition equation (Eq. 2) and the Ki was estimated from the Dixon plot.

OCI-AML-1 [1] = assay: In vitro cell proliferation assay (WST.1, Table 5); format: cell-based; conditions: Homo sapiens, 72 h; OCI-AML-1, day 3
Experimental: (§1) These cell lines were grown in Iscove's MDM supplemented with 5% fetal calf serum (FCS), 50 μM 2-mercaptoethanol, 100 μg/ml penicillin, and 100 μg/ml streptomycin. Cell lines growing in suspension were maintained at 0.5-1.5×10^6 cell/ml, while adherent cell lines were maintained at subconfluent densities.
(§2) Cell lines were seeded in triplicate at 10^4 cells/100 μl in 96-well plates. Peripheral blood mononuclear cells were seeded in triplicate at 10^5 cells/100 μl in 96-well plate. Different test compounds were added immediately at final concentrations ranging between 0 to 100 μM. All compounds were dissolved in sterile deionized water, so water was added to the control wells. On day 3, WST.1 assay (Roche) was used to measure the effect of different test compounds on cell growth. WST.1 assay is a calorimetric assay for the nonradioactive quantification of cell proliferation, cell viability, and cytotoxicity. The assay was performed according to manufacturer's instructions (Roche). It relies on the cleavage by cellular enzymes of WST.1 (water soluble tetrazolium salt: 4-[3-(4-iodophenyl)-2-(4-nitrophenyl)-2H-5-tetrazolio]-1,3-benzene disulfonate) to formazan. The amount of formazan dye formed correlates to the number of metabolically active cells in the culture and is readily read in an ELISA microplate reader using an absorbance wavelength of 440 nm. These OD values are plotted against concentrations of different compounds and IC50 is determined for each compound.

OCI-Ly-7 [2] = assay: In vitro cell proliferation assay (WST.1, Table 5); format: cell-based; conditions: Homo sapiens, OCI-Ly7, 72 h; OCI-Ly-7, day 3
Experimental: as §1, §2

OCI-AML-2 = assay: In vitro cell proliferation assay (WST.1, Table 5); format: cell-based; conditions: Homo sapiens, OCI-AML2, 72 h; OCI-AML-2, day 3
Experimental: as §1, §2

PC3 = assay: In vitro cell proliferation assay (WST.1, Table 5); format: cell-based; conditions: Homo sapiens, PC-3, 72 h; PC3, day 3
Experimental: as §1, §2

MDA468 = assay: In vitro cell proliferation assay (WST.1, Table 5); format: cell-based; conditions: Homo sapiens, 72 h; MDA468, day 3
Experimental: as §1, §2

SKW3 [3] = assay: In vitro cell proliferation assay (WST.1, Table 5); format: cell-based; conditions: Homo sapiens, 72 h; SKW3, day 3
Experimental: as §1, §2

OCI-My-2 [4] = assay: In vitro cell proliferation assay (WST.1, Table 5); format: cell-based; conditions: Homo sapiens, 72 h; OCI-My-2, day 3
Experimental: as §1, §2

MCF7 = assay: In vitro cell proliferation assay (WST.1, Table 5); format: cell-based; conditions: Homo sapiens, 72 h; MCF7, day 3
Experimental: as §1, §2

OCI-AML-1 [5] = assay: Apoptosis assay (Annexin V/PI, FACS); format: cell-based, human; conditions: OCI-AML-1, 4 μM
Experimental: (§3) Cells were seeded in duplicate at 10^5 cells/ml in 24-well plates. 4 μM final concentration of compounds Io, In or Iag (Table 2) were added immediately after seeding. Water was added to the control wells. Every 24 hr, cells were harvested, washed in PBS, and stained with Annexin V/propidium iodide (PI) (1:200) using Annexin-V-FLUOS staining kit (Roche) according to the manufacturer's instructions. Annexin V is a Ca^2+− dependent phospholipids-binding protein with high affinity for phosphatidylserine (PS). It can be used as a probe to detect PS exposure on the outer leaflet of the cell membrane and is therefore widely used for detection of apoptotic cells. Unlike apoptotic cells (Annexin V^+/PI^−), necrotic cells are Annexin V^+PI^+. PI is a DNA stain. FACS was used to analyze the staining.
(§4) To determine whether reduced expansion of different cell lines in culture with Io, In, and Iag could be attributed to a decrease in cell survival, we stained treated and control cells with Annexin V and PI. Four cell lines (OCI-AML-1, OCI-Ly7, OCI-My2, and SKW3) were cultured in presence of 4 μM of […] for 4 days. Cells were harvested daily and Annexin V/PI staining was done by FACS. Our results clearly show an increase in the percentage of apoptotic (annexin V^+PI^−) cells cultured with Io, In, or Iag compared to the control cells (Table 6). Increased cell death was first observed on day 2 of culture.

OCI-Ly-7 [6] = assay: Apoptosis assay (Annexin V/PI, FACS); format: cell-based, human; conditions: OCI-Ly-7, 4 μM
Experimental: as §3, §4

SKW3 [7] = assay: Apoptosis assay (Annexin V/PI, FACS); format: cell-based, human; conditions: SKW3, 4 μM
Experimental: as §3, §4

OCI-My-2 [8] = assay: Apoptosis assay (Annexin V/PI, FACS); format: cell-based, human; conditions: OCI-My-2, 4 μM
Experimental: as §3, §4

[9] = test system: leukemias (OCI-AML-1, OCI-AML-2, SKW3), lymphomas (OCI-Ly-7), multiple myeloma (OCI-My-2); assay: In vitro cell proliferation assay (WST.1), summary over cell lines; format: cell-based; conditions: Homo sapiens; OCI-AML-1, OCI-AML-2, SKW3, OCI-Ly-7, OCI-My-2; read-out: IC50 values, range over cell lines
Experimental: as §1, §2

LOX = assay: In vitro cell proliferation assay (WST.1, Table 5); format: cell-based, human; conditions: day 3
Experimental: as §1, §2

COLO205 = assay: In vitro cell proliferation assay (WST.1, Table 5); format: cell-based; conditions: Homo sapiens, COLO 205, 72 h; COLO205, day 3
Experimental: as §1, §2

CCD967 = assay: In vitro cell proliferation assay (WST.1, Table 5); format: cell-based; conditions: Homo sapiens, CCD-967, 72 h; CCD967 normal skin line, day 3
Experimental: as §1, §2

HS58T = assay: In vitro cell proliferation assay (WST.1, Table 5); format: cell-based; conditions: Homo sapiens, 72 h, day 3
Experimental: as §1, §2

OCVR4 = assay: In vitro cell proliferation assay (WST.1, Table 5); format: cell-based; conditions: Homo sapiens, 72 h; OCVR4, day 3
Experimental: as §1, §2

SNB19 = assay: In vitro cell proliferation assay (WST.1, Table 5); format: cell-based; conditions: Homo sapiens, SNB-19, 72 h; SNB19, day 3
Experimental: as §1, §2

T47D = assay: In vitro cell proliferation assay (WST.1, Table 5); format: cell-based; conditions: Homo sapiens, 72 h, day 3
Experimental: as §1, §2

Row | Structure (SMILES) | Ki (Mt ODCase) [µM] | Ki (Hs ODCase) [µM] | IC50 (OCI-AML-1 [1]) [µM] | IC50 (OCI-Ly-7 [2]) [µM] | IC50 (OCI-AML-2) [µM] | IC50 (PC3) [µM] | IC50 (MDA468) [µM] | IC50 (SKW3 [3]) [µM] | IC50 (OCI-My-2 [4]) [µM] | IC50 (MCF7) [µM] | Fold increase in % of apoptotic (annexinV+PI−) cells: drug-treated vs.control (OCI-AML-1 [5]; day 1) [fold] | Fold increase in % of apoptotic (annexinV+PI−) cells: drug-treated vs.control (OCI-AML-1 [5]; day 2) [fold] | Fold increase in % of apoptotic (annexinV+PI−) cells: drug-treated vs.control (OCI-AML-1 [5]; day 3) [fold] | Fold increase in % of apoptotic (annexinV+PI−) cells: drug-treated vs.control (OCI-Ly-7 [6]; day 1) [fold] | Fold increase in % of apoptotic (annexinV+PI−) cells: drug-treated vs.control (OCI-Ly-7 [6]; day 2) [fold] | Fold increase in % of apoptotic (annexinV+PI−) cells: drug-treated vs.control (OCI-Ly-7 [6]; day 3) [fold] | Fold increase in % of apoptotic (annexinV+PI−) cells: drug-treated vs.control (SKW3 [7]; day 1) [fold] | Fold increase in % of apoptotic (annexinV+PI−) cells: drug-treated vs.control (SKW3 [7]; day 2) [fold] | IC50 [9] [µM] | IC50 (LOX; Homo sapiens, 72 h) [µM] | further results
1 | O=c1[nH]c(=O)n([C@@H]2O[C@H](COP(=O)(O)O)[C@@H](O)[C@H]2O)cc1F [Compound 5-F-UMP, 5-F-UMP, reference compound] | 646 ± 15 | 97.8 ± 5.9 |  |  |  |  |  |  |  |  |  |  |  |  |  |  |  |  |  |  | 
2 | O=Cc1c(F)c(=O)[nH]c(=O)n1C1OC(CO)C(O)C1O (stereo not shown) [Iag] |  |  | 0.3 | 0.6 | 0.7 | > 100 | 1.9 | 0.3 | 0.4 | 23.7 | 1.4 | 5.3 | 14 | 0.82 | 2.1 | 6.2 | 1.2 | 4.6 | 0.3 to 2.1 | 0.3 | Fold increase in % of apoptotic (annexinV+PI−) cells: drug-treated vs.control (SKW3 [7]; day 3): 5.2 fold; Fold increase in % of apoptotic (annexinV+PI−) cells: drug-treated vs.control (OCI-My-2 [8]; day 1): 0.77 fold; Fold increase in % of apoptotic (annexinV+PI−) cells: drug-treated vs.control (OCI-My-2 [8]; day 2): 1.7 fold; Fold increase in % of apoptotic (annexinV+PI−) cells: drug-treated vs.control (OCI-My-2 [8]; day 3): 2.7 fold; IC50 (LOX): 0.4 µM
3 | CCc1c(F)c(=O)[nH]c(=O)n1C1OC(CO)C(O)C1O (stereo not shown) [Iah] | 29 ± 0.3 | 0.353 ± 0.01 | 2.1 | 1.9 |  | > 100 | 5.3 | 1.2 | 1.4 | 31.4 |  |  |  |  |  |  |  |  | 0.3 to 2.1 | 4.5 | 
4 | Nc1c(F)c(=O)[nH]c(=O)n1[C@@H]1O[C@H](CO)[C@@H](O)[C@H]1O [In, 5-Fluoro-6-amino uridine] |  | 16.6 ± 0.7 | 0.7 | 1.3 | 0.9 | > 4 | 2.6 | 0.6 | 0.9 | 1.4 |  |  |  |  |  |  |  |  | 0.3 to 2.1 | 3.4 | IC50 (COLO205): 3.3 µM; IC50 (CCD967): > 4 µM; IC50 (HS58T): > 4 µM; IC50 (OCVR4): 2 µM; IC50 (SNB19): > 4 µM; IC50 (T47D): > 4 µM
5 | [N-]=[N+]=Nc1c(F)c(=O)[nH]c(=O)n1[C@@H]1O[C@H](CO)[C@@H](O)[C@H]1O [Io, 5-fluoro-6-azido uridine] | 0.357 ± 0.028 |  | 0.6 | 0.7 | 0.7 | > 4 | 1.8 | 0.4 | 0.6 | 1 | 1.5 | 9.3 | 16 | 0.74 | 1.9 | 6.6 | 1.2 | 4.7 | 0.3 to 2.1 | 2.3 | IC50 (COLO205): 3.8 µM; IC50 (CCD967): > 4 µM; IC50 (HS58T): > 4 µM; IC50 (OCVR4): 1.5 µM; IC50 (SNB19): > 4 µM; IC50 (T47D): > 4 µM; Fold increase in % of apoptotic (annexinV+PI−) cells: drug-treated vs.control (SKW3 [7]; day 3): 4.4 fold; Fold increase in % of apoptotic (annexinV+PI−) cells: drug-treated vs.control (OCI-My-2 [8]; day 1): 0.86 fold; Fold increase in % of apoptotic (annexinV+PI−) cells: drug-treated vs.control (OCI-My-2 [8]; day 2): 1.9 fold; Fold increase in % of apoptotic (annexinV+PI−) cells: drug-treated vs.control (OCI-My-2 [8]; day 3): 2.8 fold
